{"source": "patent US9120749B2", "about": "“Quinoline derivatives and MELK inhibitors containing the same” (ONCOTHERAPY SCIENCE, INC., priority 2010, dated 2015)", "key": {"[1]": {"biological_target": "MELK (Homo sapiens, UniProt Q14680)", "sequence (Q14680 whole entry, looked up)": "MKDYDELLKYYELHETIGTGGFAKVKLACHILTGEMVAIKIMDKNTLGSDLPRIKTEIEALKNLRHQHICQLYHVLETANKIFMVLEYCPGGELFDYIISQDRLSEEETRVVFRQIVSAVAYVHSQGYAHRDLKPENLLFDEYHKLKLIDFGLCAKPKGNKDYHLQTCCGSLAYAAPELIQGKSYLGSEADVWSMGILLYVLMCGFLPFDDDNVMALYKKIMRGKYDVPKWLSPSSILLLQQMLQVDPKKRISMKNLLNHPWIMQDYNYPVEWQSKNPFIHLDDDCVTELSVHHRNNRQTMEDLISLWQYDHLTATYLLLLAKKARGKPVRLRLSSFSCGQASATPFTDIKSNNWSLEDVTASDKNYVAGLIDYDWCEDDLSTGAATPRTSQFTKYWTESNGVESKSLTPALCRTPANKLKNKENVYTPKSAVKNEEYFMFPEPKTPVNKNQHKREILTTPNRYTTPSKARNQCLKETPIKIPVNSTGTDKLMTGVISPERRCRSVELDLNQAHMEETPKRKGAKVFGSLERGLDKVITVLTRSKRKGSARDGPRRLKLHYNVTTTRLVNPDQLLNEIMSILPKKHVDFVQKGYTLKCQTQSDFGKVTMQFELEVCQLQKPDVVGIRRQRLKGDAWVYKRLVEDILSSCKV", "assay": "Kinase assay: MELK activity, phosphorylation of FITC-labeled histone H3 peptide measured by IMAP fluorescence polarization", "format": "biochemical", "settings": "read-out: IC50 (μM) (kinase assay)", "outline": "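Compounds, serially diluted from 12.5 mM DMSO stocks to 1% final DMSO, were tested with FITC-labeled histone H3 peptide as substrate. The reaction was stopped with progressive binding solution. Fluorescence polarization was read after 0.5 hour at room temperature.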"}, "[2]": {"system": "A549 cells", "assay": "Cell-based assay: anti-proliferative activity, Cell Counting Kit-8, 72 hours (A549)", "settings": "Homo sapiens, A549, 72 h, 72 hours", "outline": "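Cell Counting Kit-8 read-out of A549 growth after 72 hours of inhibitor exposure, cells plated in 96-well format. Values reported as IC50.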"}, "[3]": {"system": "HT-1197 cells", "assay": "Cell-based assay: anti-proliferative activity, Cell Counting Kit-8, 72 hours (HT-1197, negative control without MELK expression)", "settings": "Homo sapiens, HT1197, 72 h, 72 hours", "outline": "(§1)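 Anti-MELK western blot on crude lysates → MELK status per line. Cells plated 96-well, compound exposure, CCK-8 readout at 72 h; IC50 calculated.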"}, "[4]": {"system": "DU4475 cells", "assay": "Cell-based assay: anti-proliferative activity, Cell Counting Kit-8, 72 hours (DU4475)", "settings": "Homo sapiens, DU-4475, 72 h"}, "[5]": {"system": "T47D cells", "assay": "Cell-based assay: anti-proliferative activity, Cell Counting Kit-8, 72 hours (T47D)", "settings": "Homo sapiens, T47D, 72 h", "outline": "as §1"}, "[6]": {"system": "DU4475 cells", "assay": "Cell-based assay: anti-proliferative activity, Cell Counting Kit-8, 72 hours (DU4475)", "settings": "Homo sapiens, DU-4475, 72 h", "remark": "listed apart in the source"}, "[7]": {"settings": "HT1197 cells (negative control, no MELK expression)"}, "[8]": {"settings": "HT1197 cells (negative control)"}}, "data": [{"compound": "CCC(=O)c1cnc2ccc(-c3cc(F)c(O)c(Cl)c3)cc2c1Nc1ccc(N2CCC(N)C2)nc1", "note": "(stereo not shown) [Example 760, 1-(4-(6-(3-aminopyrrolidin-1-yl)pyridin-3-ylamino)-6-(3-chloro-5-fluoro-4-hydroxyphenyl)quinolin-3-yl)propan-1-one]", "values": [{"measurement": "IC50", "setting": "[1]", "value": 0.0034, "unit": "µM"}, {"measurement": "IC50", "setting": "[2]", "value": 0.031, "unit": "µM"}, {"measurement": "IC50", "setting": "[3]; [7]", "value": 0.77, "unit": "µM"}, {"measurement": "IC50", "setting": "[4]", "value": 0.016, "unit": "µM"}, {"measurement": "IC50", "setting": "[5]", "value": 0.0087, "unit": "µM"}]}, {"compound": "CCC(=O)c1cnc2ccc(-c3cc(Cl)c(O)c(Cl)c3)cc2c1N[C@H]1CC[C@H](N(C)C)CC1", "note": "[Example 754, 1-(6-(3,5-dichloro-4-hydroxyphenyl)-4-((trans-4-(dimethylamino)cyclohexyl)amino)quinolin-3-yl)propan-1-one]", "values": [{"measurement": "IC50", "setting": "[1]", "value": 0.02, "unit": "µM"}, {"measurement": "IC50", "setting": "[2]", "value": 0.22, "unit": "µM"}, {"measurement": "IC50", "setting": "[3]; [7]", "value": 10, "unit": "µM"}, {"measurement": "IC50", "setting": "[4]", "value": 0.072, "unit": "µM"}, {"measurement": "IC50", "setting": "[5]", "value": 0.19, "unit": "µM"}]}, {"compound": "CCC(=O)c1cnc2ccc(-c3cc(Cl)c(O)c(Cl)c3)cc2c1Nc1ccc(N2CCC(N)C2)nc1", "note": "(stereo not shown) [Example 761, 1-(4-(6-(3-aminopyrrolidin-1-yl)pyridin-3-ylamino)-6-(3,5-dichloro-4-hydroxyphenyl)quinolin-3-yl)propan-1-one]", "values": [{"measurement": "IC50", "setting": "[1]", "value": 0.0026, "unit": "µM"}, {"measurement": "IC50", "setting": "[2]", "value": 0.053, "unit": "µM"}, {"measurement": "IC50", "setting": "[3]; [7]", "value": 1.5, "unit": "µM"}, {"measurement": "IC50", "setting": "[4]", "value": 0.022, "unit": "µM"}, {"measurement": "IC50", "setting": "[5]", "value": 0.031, "unit": "µM"}]}, {"compound": "CCC(=O)c1cnc2ccc(-c3cc(Cl)c(O)c(OC)c3)cc2c1N[C@H]1CC[C@H](N(C)C)CC1", "note": "[Example 755]", "values": [{"measurement": "IC50", "setting": "[1]", "value": 0.0018, "unit": "µM"}, {"measurement": "IC50", "setting": "[2]", "value": 0.34, "unit": "µM"}, {"measurement": "IC50", "setting": "[3]; [7]", "value": 3.4, "unit": "µM"}, {"measurement": "IC50", "setting": "[4]", "value": 0.21, "unit": "µM"}, {"measurement": "IC50", "setting": "[5]", "value": 0.35, "unit": "µM"}]}, {"compound": "CC(=O)c1cnc2ccc(-c3cc(F)c(O)c(Cl)c3)cc2c1Nc1cccc(CCN(C)C)c1", "note": "[Example 759, 1-(6-(3-chloro-5-fluoro-4-hydroxyphenyl)-4-(3-(2-(dimethylamino)ethyl)phenylamino)quinolin-3-yl)ethanone]", "values": [{"measurement": "IC50", "setting": "[1]", "value": 0.013, "unit": "µM"}, {"measurement": "IC50", "setting": "[2]", "value": 0.42, "unit": "µM"}, {"measurement": "IC50", "setting": "[3]; [7]", "value": 10, "unit": "µM"}, {"measurement": "IC50", "setting": "[4]", "value": 0.2, "unit": "µM"}, {"measurement": "IC50", "setting": "[5]", "value": 0.67, "unit": "µM"}]}, {"compound": "O=C(c1cnc2ccc(-c3cc(Cl)c(O)c(Cl)c3)cc2c1N1CCC(CCN2CCCC2)CC1)C1CC1", "note": "[Example 756, cyclopropyl(6-(3,5-dichloro-4-hydroxyphenyl)-4-(4-(2-(pyrrolidin-1-yl)ethyl)piperidin-1-yl)quinolin-3-yl)methanone]", "values": [{"measurement": "IC50", "setting": "[2]", "value": 0.54, "unit": "µM"}, {"measurement": "IC50", "setting": "[3]; [7]", "value": 10, "unit": "µM"}, {"measurement": "IC50", "setting": "[4]", "value": 0.27, "unit": "µM"}, {"measurement": "IC50", "setting": "[5]", "value": 0.5, "unit": "µM"}]}, {"compound": "NC1CCN(c2ncc(Nc3c(C(=O)C4CC4)cnc4ccc(-c5cc(F)c(O)c(Cl)c5)cc34)cn2)C1", "note": "(stereo not shown) [Example 572, (4-(2-(3-aminopyrrolidin-1-yl)pyrimidin-5-ylamino)-6-(3-chloro-5-fluoro-4-hydroxyphenyl)quinolin-3-yl)(cyclopropyl)methanone]", "values": [{"measurement": "IC50", "setting": "[1]", "value": 0.003, "unit": "µM"}, {"measurement": "IC50", "setting": "[2]", "value": 0.03, "unit": "µM"}, {"measurement": "IC50", "setting": "[3]; [8]", "value": 0.37, "unit": "µM"}, {"measurement": "IC50", "setting": "[6]", "value": 0.011, "unit": "µM"}, {"measurement": "IC50", "setting": "[5]", "value": 0.0076, "unit": "µM"}]}, {"compound": "COc1cc(-c2ccc3ncc(C(C)=O)c(Nc4ccc(C(N)=O)cc4)c3c2)cc(Cl)c1O", "note": "[Example 544, 4-(3-acetyl-6-(3-chloro-4-hydroxy-5-methoxyphenyl)quinolin-4-ylamino)benzamide]", "values": [{"measurement": "IC50", "setting": "[1]", "value": 0.018, "unit": "µM"}, {"measurement": "IC50", "setting": "[2]", "value": 0.47, "unit": "µM"}, {"measurement": "IC50", "setting": "[3]; [8]", "value": 2.2, "unit": "µM"}, {"measurement": "IC50", "setting": "[6]", "value": 0.2, "unit": "µM"}, {"measurement": "IC50", "setting": "[5]", "value": 0.17, "unit": "µM"}]}, {"compound": "CCCC(=O)c1cnc2ccc(-c3cc(Cl)c(O)c(OC)c3)cc2c1N[C@H]1CC[C@H](CN(C)C)CC1", "note": "[Example 607]", "values": [{"measurement": "IC50", "setting": "[1]", "value": 0.0051, "unit": "µM"}, {"measurement": "IC50", "setting": "[2]", "value": 0.48, "unit": "µM"}, {"measurement": "IC50", "setting": "[3]; [8]", "value": 3.4, "unit": "µM"}, {"measurement": "IC50", "setting": "[6]", "value": 0.24, "unit": "µM"}, {"measurement": "IC50", "setting": "[5]", "value": 0.24, "unit": "µM"}]}, {"compound": "NC1CCN(c2ccc(Nc3c(C(=O)C4CC4)cnc4ccc(-c5cc(F)c(O)c(Cl)c5)cc34)cn2)C1", "note": "(stereo not shown) [Example 576, (4-(6-(3-aminopyrrolidin-1-yl)pyridin-3-ylamino)-6-(3-chloro-5-fluoro-4-hydroxyphenyl)quinolin-3-yl)(cyclopropyl)methanone]", "values": [{"measurement": "IC50", "setting": "[1]", "value": 0.0019, "unit": "µM"}, {"measurement": "IC50", "setting": "[2]", "value": 0.026, "unit": "µM"}, {"measurement": "IC50", "setting": "[3]; [8]", "value": 0.53, "unit": "µM"}, {"measurement": "IC50", "setting": "[6]", "value": 0.012, "unit": "µM"}, {"measurement": "IC50", "setting": "[5]", "value": 0.0094, "unit": "µM"}]}]}
